“And” between values parts separate entries of the source, which are not always exact repeats. Equal values may be shown once.
Experiments:
PTEN mutant cells = experiment: Western blot of Akt, S6, 4EBP phosphorylation in PTEN mutant cells; type: cell-based; details: PTEN-mutant cell line; FIG. 12B
[1] = system: PI3 kinase signaling pathway in MDA-MB-361, HCC-1419 and NCI-H1048 cells; experiment: Cellular signaling immunoblot in human tumor cell lines; type: cell-based; details: single agents; Compound B 5-100 nM, Compound A 1 and 3 μM; 2 or 24 hours
Protocol: Compound A was synthesized at Intellikine and was supplied as a stock of 10 mM in 100% DMSO and diluted in the respective cell line's growth media.
Prior to treatment, cells were plated at 2×10^5 cells/well in 12-well plates in normal growth media and grown to 80% confluence. Cells were treated for 2 or 24 hours in a CO2 incubator set to 37° C. with normal growth media containing inhibitor diluted in DMSO.
Media was aspirated, cells were washed with 1×PBS, Ice cold 1× Cell Lysis Buffer was prepared from 10× stock and 100 μM 4-(2-Aminoethyl) benzenesulfonyl fluoride hydrochloride (AEBSF) andlmM sodium orthovanadate […] was added. Cells were lysed by adding 1× Cell Lysis Buffer (100 μL per well of 12-well plate of cells). Cells incubated on ice for 20 to 30 minutes to allow complete lysis, and lysates were transferred to microcentrifuge tubes, sonicated for 10 seconds, and subjected to microcentrifugation at 14,000×g for 10 minutes at 4° C. Cleared supernatants were transferred to fresh tubes, and stored at −20° C. for Western blot analysis. […] Molecular weight markers were loaded, the gel electrophoresed at 200V for 40 minutes.
The gels were electrotransferred to nitrocellulose membranes, and incubated in blocking buffer (Tris buffered saline plus 0.5% Tween-20 (TBS/T)+5% bovine serum albumin (BSA)) for 1 hour at room temperature. […]

MDA-MB-361 xenografts = experiment: Antitumor activity and tumor regrowth, MDA-MB-361 xenografts (Example 42); type: in vivo, Mus musculus
Protocol: (room temperature), shielded from light. The test article Compound A was prepared in 5% NMP+95% PEG400 every 5 to 7 days and stored at approximately 25° C. (room temperature), shielded from light. The control article used in this study was 5% NMP+95% PEG400. Compounds were completely dissolved in NMP by sonication, followed by the addition of an appropriate volume of PEG400, and the final solution was vortexed and sonicated to ensure thorough mixing.
Low-passage MDA-MB-361 cells were grown in Eagle's Minimal Essential Medium (EMEM) media supplemented with 20% fetal bovine serum (FBS) and 1× penicillin/streptomycin (Invitrogen, Carlsbad, Calif., USA) until approximately 80% confluency was reached. Before injection, the cells were detached with GIBCO® trypsin (Invitrogen), washed twice with phosphate-buffered saline (PBS), and resuspended in Roswell Park Memorial Institute (RPMI) media (Invitrogen) without supplements. Cells were resuspended to a final concentration of 5×10^7 cells/mL in RPMI media without supplements. […]
Female 5 to 6-week old female (athymic nu/nu) nude mice were inoculated SC in the flank with 5.0×10^6 MDA-MB-361 cells. Tumor growth was monitored with vernier calipers. The MTV was calculated using the formula V=W^2×L÷2. […] Tumor growth and body weight were measured twice weekly. Percent TGI and body weight change were calculated on Day 29. […] The remaining mice continued on study until Day 65, and tumor size and body weight in these mice were measured every 9 to 11 days.
Antitumor activity was determined by calculating the percent TGI using Equation 1: Percent TGI)=(MTV of the control group−MTV of a treated group)÷MTV of the control group×100
Tumor growth delay was determined by calculating the time until MTV in a given treatment group reached 1000 mm^3 versus the time until MTV in the control group reached 1000 mm^3.
The differences in trends of tumor growth over time between pairs of treatment groups were assessed using linear mixed-effects regression models. These models account for the fact that each animal was measured at multiple time points. […]

SMILES: Nc1nc2cc(-c3ccc4ncc(C(=O)N5CCOCC5)n4c3)ccc2o1 [Compound A]
- inhibition of Akt phosphorylation at serine 473 (PTEN mutant cells): reduced inhibition
- phosphorylation of downstream targets AKT, S6 and 4E-BP1 (Western blot, FIG. 15) [1]: potently inhibited
- %TGI (Day 29) (MDA-MB-361 xenografts; Compound B 0.3 mg/kg, Compound A 60 mg/kg, alone or combined, PO QD 30 days, Day 29): 77.4%
- MTV on Day 29 (MDA-MB-361 xenografts; Compound B 0.3 mg/kg, Compound A 60 mg/kg, alone or combined, PO QD, n = 8): 165 mm^3 and 165 ± 105.8 mm^3
- %TGI (Day 65) (MDA-MB-361 xenografts; based on the control group (n = 4) on Day 65): 69.5%
